Assays:
[1] = system: healthy postmenopausal women; experiment: Prophylaxis of postmenopausal bone loss; assay type: in vivo, human; conditions: at or above 1.0 μg/day, 24 to 36 months
Experimental: A clinical study is conducted with healthy postmenopausal women having ages between 55 and 60 years. The study involves up to 80 patients randomly divided into two treatment groups, and continues for 24 to 36 months. One treatment group receives a constant dosage of 1α,24(S)-dihydroxy vitamin D2 (u.i.d.; a dose level at or above 1.0 μg/day) and the other receives a matching placebo. The study is conducted as indicated in Example 2 above.

[2] = system: postmenopausal osteoporotic women; experiment: Dose ranging study in postmenopausal osteoporotic women; assay type: in vivo, human; conditions: oral 0.5 to 8.0 μg/day, escalated weekly over five weeks
Experimental: Twenty postmenopausal osteoporotic women are enrolled in an open label study.
On admission to the study, all patients receive instruction on selecting a daily diet containing 400 to 600 mg of calcium. Compliance to this diet is verified at weekly intervals by 24-hour food records and by interviews with each patient.
All patients complete a one-week baseline period, a five-week treatment period, and a one-week post-treatment observation period. During the treatment period, patients orally self-administer 1α,24(S)-dihydroxyvitamin D2 at an initial dose of 0.5 μg/day for the first week, and at successively higher doses of 1.0, 2.0, 4.0, and 8.0 μg/day in each of the following four weeks. All doses are administered before breakfast.
Blood and urine chemistries are monitored on a weekly basis throughout the study. Key blood chemistries include fasting serum levels of-calcium, phosphorus, osteocalcin, creatinine, and blood urea nitrogen. Key urine chemistries include 24-hour excretion of calcium, phosphorus, and creatinine.

[3] = target: T1, vitamin D receptor (VDR) (Homo sapiens, UniProt P11473); experiment: Vitamin D-dependent transcriptional activation: growth hormone production in COS-1 cells co-transfected with VDR plasmid and VDRE-GH plasmid; assay type: cell-based; conditions: in words
T1 sequence (P11473 1-427): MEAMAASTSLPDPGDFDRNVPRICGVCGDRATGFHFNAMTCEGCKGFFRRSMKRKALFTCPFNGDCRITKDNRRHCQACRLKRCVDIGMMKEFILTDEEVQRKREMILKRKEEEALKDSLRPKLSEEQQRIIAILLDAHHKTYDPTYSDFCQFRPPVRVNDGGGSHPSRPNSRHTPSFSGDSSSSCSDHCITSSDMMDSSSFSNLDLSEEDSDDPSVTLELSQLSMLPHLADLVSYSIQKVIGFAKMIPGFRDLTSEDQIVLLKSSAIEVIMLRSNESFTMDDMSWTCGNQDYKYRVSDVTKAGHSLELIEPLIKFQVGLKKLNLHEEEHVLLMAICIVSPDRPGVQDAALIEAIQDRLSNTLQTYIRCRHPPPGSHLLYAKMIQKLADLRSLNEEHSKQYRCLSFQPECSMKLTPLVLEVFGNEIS
Experimental: The biological activity in vitro of chemically synthesized 1α,24(S)-(OH)2 D2 and 1α,24(R)-(OH)2 D2 was measured using a vitamin D-dependent transcriptional activation model system in which a vitamin D receptor (VDR)-expressing plasmid pSG5-hVDR1/3and a plasmid p(CT4)^4 TKGH containing a Growth Hormone (GH)-gene, under the control of a vitamin D-responsive element (VDRE) were co-transfected into Green monkey kidney, COS-1 cells. DNA's for these two vectors were supplied by Dr. Mark Haussler, Department of Biochemistry, University of Arizona, Tucson, Ariz.
Tranfected cells were incubated with vitamin D metabolites and growth hormone production was measured.

[4] = system: HL-60 promyelocytes; experiment: HL-60 cell differentiation assay; assay type: cell-based; conditions: dose-response; acid esterase, NBT reduction, thymidine incorporation
Experimental: A dose-response study is conducted with 1α,24(S)-(OH)2 D2 in the HL-60 cell differentiation assay as described by DeLuca and Ostrom (DeLuca, H. F. and Ostrem, V. K., Prog. Clin. Biol. Res., vol. 259, pp. 41-55 (1988)). In this study, 1α,25-(OH)2 D3 is used as a positive control and appropriate solvents are used as negative controls. The following variables are evaluated: nonspecific acid esterase activity, nitroblue tetrazolium (NBT) reduction, and thymidine incorporation.

[5] = system: men and women with renal disease undergoing chronic hemodialysis; experiment: Management of hypocalcemia and metabolic bone disease in chronic hemodialysis patients; assay type: in vivo, human; conditions: greater than 3.0 μg/day, twelve months; double-isotope technique
Experimental: A twelve-month, double-blind, placebo-controlled clinical trial is conducted with thirty men and women with renal disease who are undergoing chronic hemodialysis. […] Efficacy is evaluated by pre- and post-treatment comparisons of the two patient groups with regard to (a) direct measurements of intestinal calcium absorption, (b) total body calcium retention, (c) radial and spinal bone mineral density, or (d) determinations of serum calcium. Safety is evaluated by regular monitoring of serum calcium.

[6] = Blood metabolite levels in osteoporotic women administered 1α-OH-D2; assay type: in vivo; conditions: one day after a single 2 μg dose of 1α-OH-D2; human females
Experimental: An increase in the production of 1α,24(S)-(OH)2 D2 relative to 1α,25-(OH)2 D2 has also been observed by the present inventors in human females who received 1α-OH-D2 as part of an investigation of that drug for the treatment of osteoporosis. Following either a single dose of 2 μg of 1α-OH-D2 or daily doses of 8 μg/day for one week, blood was collected and analyzed for the metabolites 1α,24(S)-(OH)2 D2 and 1α,25-(OH)2 D2. Lipid was extracted from the blood, and the metabolites were purified by HPLC using standard methods and quantified with the radioreceptor assay produced by Incstar (Stillwater, Minn.). One day after a single 2 μg dose, the level of 1α,24(S)-(OH)2 D2 was undetectable with the 1α,25-(OH)2 D2 level being approximately 11 pg/ml. In contrast, one day following the last dose of 8 μg, the level of 1α,24(S)-(OH)2 D2 averaged 9 pg/ml with the 1α,25-(OH)2 D2 level averaging 30 pg/ml.

[7] = system: postmenopausal osteoporotic out-patients; experiment: Preventive treatment of bone mass loss in postmenopausal osteoporotic women; assay type: in vivo, human; conditions: at or above 1.0 μg/day, 24 to 36 months
Experimental: A clinical study is conducted with postmenopausal osteoporotic out-patientshaving ages between 55 and 75 years. The study involves up to 120 patients randomly divided into three treatment groups and continues for 24 to 36 months. Two of the treatment groups receive constant dosages of 1α,24(S)-dihydroxy vitamin D2 (u.i.d.; two different dose levels at or above 1.0 μg/day) and the other group receives a matching placebo. All patients maintain a normal intake of dietary calcium (500 to 800 mg/day) and refrain from using calcium supplements. Efficacy is evaluated by pre-and post-treatment comparisons of the patient groups with regard to (a) total body calcium retention, and (b) radial and spinal bone mineral density as determined by dual-photon absorptiometry (DPA) or dual-energy x-ray absorptiometry (DEXA). Safety is evaluated by comparisons of urinary hydroxyproline excretion, serum and urine calcium levels, creatinine. clearance, blood urea nitrogen, and other routine determinations.

routinely monitored serum parameters [2]: no effect | urinary excretion of hydroxyproline [2]: nor does it increase | activity in the transcriptional activation system compared with 1α,24(R)-(OH)2 D2 [3]: significantly more activity | blood level of metabolite [6]: undetectable
Compound: C=C1/C(=C\C=C2/CCC[C@]3(C)[C@@H]([C@H](C)/C=C/[C@@](C)(O)C(C)C)CC[C@@H]23)C[C@@H](O)C[C@@H]1O [1α,24(S)-(OH)2 D2, 1α,24(S)-dihydroxy Vitamin D2]
monitored safety parameters, long-term administration [1]: confirm the safety | serum osteocalcin levels [2]: increases | differentiation of HL-60 promyelocytes to monocytes [4]: potent activity in promoting differentiation | intestinal calcium absorption [5]: significantly increases | incidence of hypercalcemia or hypercalciuria, or any other metabolic disturbance [7]: insignificant incidence | total body calcium, and radial and spinal bone densities relative to placebo [7]: significantly higher

From patent US6166000A, “Methods for preparation and use of 1α,24(S)-Dihydroxy vitamin . D.sub2” (priority 1995, dated 2000)
